Data published in US20240287022A1 (Merck Sharp & Dohme LLC, priority 2021, published 2024).

Biological target: recombinant IL4I1 (Homo sapiens (Human), UniProt Q96RQ9)
Assay: IL4I1 Enzymatic Assay (Amplex Red/HRP coupled H2O2 detection)
Format: biochemical
Conditions: 1 nM IL4I1, 1 mM each Phe/Tyr/Trp, four-hour pre-incubation, 120 minutes reaction, top compound concentration of 10000 nM
Description: Interleukin 4 inducible protein 1 (IL4I1) is an L-amino oxidase that catalyzes the oxidation of aromatic residues (Phe, Trp and Tyr): L-amino acid+H2O+O2→2-oxo acid+NH3+H2O2. Equal molar of H2O2 and the corresponding alpha-ketoacid are produced when IL4I1 and substrate are added. In this assay, the hydrogen peroxide generated by IL4I1 are then detected through a coupled reaction with Amplex Red (10-acetyl-3,7-dihydroxyphenoxazine) and […] (HRP) to produce Resorufin product that could be detected in the form of fluorescence signals. The assessment of the inhibitory effect of small molecules (EC50) on IL4I1 is measured by the effectiveness of the compounds to inhibit the production of H2O2.
Using this assay, the potency (EC50) of each compound was determined from a ten-point (1:3 serial dilution; top compound concentration of 10000 nM) titration curve using the following outlined procedure. To each well of a black flat-bottom Greiner (Cat #781076) 384 well-plate, 25 nL of compound (0.1% DMSO in final assay volume of 25 μL) was dispensed, followed by the addition of 12.5 μL of 1× assay buffer (50 mM Hepes 7.0 and 0.005% Tween20 (Sigma, Cat #P8341; low peroxide grade)) containing 2 nM of recombinant IL4I1 (R&D Systems, Cat #5684-AO-020). Plates were placed in an ambient temperature humidified chamber for a four-hour pre-incubation with compound. Subsequently, each reaction was initiated by the addition of 12.5 μL 1× assay buffer containing 2 mM of each aromatic amino acids (Phe/Tyr/Trp), 0.1 mM Amplex Red and 2 U/mL of HRP. The final reaction in each well of 25 μL consists of 1 nM of IL4I1, 1 mM of each residues (Phe, Tyr and Trp), 0.05 mM Amplex Red and 1 U/mL of HRP. It should be noted that the concentrations of Amplex Red and HRP used here are in excess such that the conversion of H2O2 to Resorufin product occurs instantaneously and non-rate limiting. Reactions were allowed to proceed for 120 minutes followed by fluorescence readout on a Spectramax with the following set parameters: 544 nm excitation/590 nm emission, 570 nm cutoff (EnVision is an alternative reader). Dose-response curves were generated by plotting percent effect (% product conversion; Y-axis) vs. Log10 compound concentrations (X-axis). EC50 values were calculated using a non-linear regression, four-parameters sigmoidal dose-response model.

Chain of recombinant IL4I1 (Q96RQ9 22-567): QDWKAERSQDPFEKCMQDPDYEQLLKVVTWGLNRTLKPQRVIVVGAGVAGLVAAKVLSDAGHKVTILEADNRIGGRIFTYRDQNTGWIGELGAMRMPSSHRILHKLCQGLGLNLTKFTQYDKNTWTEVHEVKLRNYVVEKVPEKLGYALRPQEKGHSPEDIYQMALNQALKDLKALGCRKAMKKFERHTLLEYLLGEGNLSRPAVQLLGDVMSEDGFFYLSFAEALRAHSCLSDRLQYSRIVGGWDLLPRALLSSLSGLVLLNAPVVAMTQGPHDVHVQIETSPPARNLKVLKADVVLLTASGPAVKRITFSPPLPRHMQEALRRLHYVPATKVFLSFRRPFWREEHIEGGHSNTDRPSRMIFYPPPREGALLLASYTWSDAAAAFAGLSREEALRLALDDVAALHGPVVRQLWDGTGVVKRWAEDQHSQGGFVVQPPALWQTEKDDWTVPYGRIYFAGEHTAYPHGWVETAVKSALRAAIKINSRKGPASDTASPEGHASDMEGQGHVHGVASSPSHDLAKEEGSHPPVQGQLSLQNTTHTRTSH

Compound | EC50 [µM]
CNCc1cccc2cc(Cc3cccc(OC(F)(F)F)c3)c(=O)[nH]c12 [Example 180, 8-((methylamino)methyl)-3-(3-(trifluoromethoxy)benzyl)quinolin-2(1H)-one] | 0.105
Cc1noc(C(C)C)c1-c1nnc(Cc2cc3ccccc3[nH]c2=O)o1 [Example 15, 3-((5-(5-isopropyl-3-methylisoxazol-4-yl)-1,3,4-oxadiazol-2-yl)methyl)quinolin-2(1H)-one] | 0.0137
CC(c1nnc(Cc2cc3ccccc3[nH]c2=O)o1)C1CC1 (racemic) [Example 19, rac-3-((5-(1-cyclopropylethyl)-1,3,4-oxadiazol-2-yl)methyl)quinolin-2(1H)-one] | 0.125
O=c1[nH]c2cnccc2cc1Cc1cccc(OC(F)(F)F)c1 [Example 103, 3-(3-(trifluoromethoxy)benzyl)-1,7-naphthyridin-2(1H)-one] | 0.466
O=c1[nH]c2ccccc2cc1Cc1ccc(C2COCC2O)cc1 (stereo not drawn) [Example 182, 3-(4-(4-hydroxytetrahydrofuran-3-yl)benzyl)quinolin-2(1H)-one] | 0.0073
O=c1[nH]c2c(CO)cccc2cc1Cc1cccc(OC(F)(F)F)c1 [Example 177, 8-(hydroxymethyl)-3-(3-(trifluoromethoxy)benzyl)quinolin-2(1H)-one] | 1.91
O=c1[nH]c2ccccc2cc1Cc1ccc2c(c1)CCNC2 [Example 129, 3-((1,2,3,4-tetrahydroisoquinolin-6-yl)methyl)quinolin-2(1H)-one] | 0.0136
O=c1[nH]c2ccccc2cc1Cc1cnc(N2CCCC2)s1 [Example 139, 3-((2-(pyrrolidin-1-yl)thiazol-5-yl)methyl)quinolin-2(1H)-one] | 0.0085
Cc1cc(Cc2cc3ccccc3[nH]c2=O)ccc1CNS(C)(=O)=O [Example 165, N-(2-methyl-4-((2-oxo-1,2-dihydroquinolin-3-yl)methyl)benzyl)methanesulfonamide] | 0.0062
NS(=O)(=O)c1c(Cl)cc(Cc2cc3ccccc3[nH]c2=O)cc1Cl [Example 71, 2,6-dichloro-4-((2-oxo-1,2-dihydroquinolin-3-yl)methyl)benzenesulfonamide] | 0.0037
O=c1[nH]c2ccccc2cc1Cc1ccc2occc(=O)c2c1 [Example 130, 3-((4-oxo-4H-chromen-6-yl)methyl)quinolin-2(1H)-one] | 0.0018
O=C1NCCc2cc(Cc3cc4ccccc4[nH]c3=O)ccc21 [Example 78, 3-((1-oxo-1,2,3,4-tetrahydroisoquinolin-6-yl)methyl)quinolin-2(1H)-one] | 0.0107
O=c1[nH]c2ccccc2cc1Cc1nnc(-c2ccccc2)o1 [Example 5, 3-((5-phenyl-1,3,4-oxadiazol-2-yl)methyl)quinolin-2(1H)-one] | 0.042
O=c1[nH]c2ccccc2cc1Cc1nnc(C2(C(F)(F)F)CC2)o1 [Example 34, 3-((5-(1-(trifluoromethyl)cyclopropyl)-1,3,4-oxadiazol-2-yl)methyl)quinolin-2(1H)-one] | 0.653
O=c1[nH]c2ccccc2cc1Cc1ccc2ncccc2c1 [Example 152, 3-(Quinolin-6-ylmethyl)quinolin-2(1H)-one] | 0.0053
COC(=O)Nc1ccc(Cc2cc3ccccc3[nH]c2=O)cc1 [Example 119, methyl (4-((2-oxo-1,2-dihydroquinolin-3-yl)methyl)phenyl)carbamate] | 0.016
CC(O)C(C#N)c1ccc(Cc2cc3ccccc3[nH]c2=O)cc1 (single isomer, unassigned) [Example 102C, 3-hydroxy-2-(4-((2-oxo-1,2-dihydroquinolin-3-yl)methyl)phenyl)butanenitrile] | 0.0118
O=c1[nH]c2ccccc2cc1Cc1nnc(-c2cn3ccsc3n2)o1 [Example 13, 3-((5-(imidazo[2,1-b]thiazol-6-yl)-1,3,4-oxadiazol-2-yl)methyl)quinolin-2(1H)-one] | 0.0057
O=c1[nH]c2ccccc2cc1Cc1ccc(-c2cn[nH]c2)cc1 [Example 125, 3-(4-(1H-pyrazol-4-yl)benzyl)quinolin-2(1H)-one] | 0.0061
CC1(c2ccc(Cc3cc4ccccc4[nH]c3=O)cc2)CCC(=O)N1 (single isomer, unassigned) [Example 183B, (R or S)-3-(4-(2-methyl-5-oxopyrrolidin-2-yl)benzyl)quinolin-2(1H)-one] | 0.0111

Compound | EC50 [µM]
COc1cc(CNS(C)(=O)=O)ccc1Cc1cc2ccccc2[nH]c1=O [Example 74, N-(3-methoxy-4-((2-oxo-1,2-dihydroquinolin-3-yl)methyl)benzyl)methanesulfonamide] | 0.0069
O=c1[nH]c2ccccc2cc1Cc1nnc(Cc2cccnn2)o1 [Example 25] | 0.615
N#CC1(c2ccc(Cc3cc4ccccc4[nH]c3=O)cc2)CC(O)C1 (single isomer, unassigned) [Example 101A, 3-hydroxy-1-(4-((2-oxo-1,2-dihydroquinolin-3-yl)methyl)phenyl)cyclobutane-1-carbonitrile] | 0.0026
N#Cc1cn[nH]c1-c1nnc(Cc2cc3ccccc3[nH]c2=O)o1 [Example 41, 5-(5-((2-oxo-1,2-dihydroquinolin-3-yl)methyl)-1,3,4-oxadiazol-2-yl)-1H-pyrazole-4-carbonitrile] | 0.0134
O=c1[nH]c2ccccc2cc1Cc1nnc(CC2CC2)o1 [Example 27, 3-((5-(cyclopropylmethyl)-1,3,4-oxadiazol-2-yl)methyl)quinolin-2(1H)-one] | 0.0703
Cc1snnc1-c1nnc(Cc2cc3ccccc3[nH]c2=O)o1 [Example 17, 3-((5-(5-methyl-1,2,3-thiadiazol-4-yl)-1,3,4-oxadiazol-2-yl)methyl)quinolin-2(1H)-one] | 0.169
O=C1COc2c(Cc3cc4ccccc4[nH]c3=O)cccc2N1 [Example 122, 8-((2-oxo-1,2-dihydroquinolin-3-yl)methyl)-2H-benzo[b][1,4]oxazin-3(4H)-one] | 0.0066
N#CC1(c2ccc(Cc3cc4ccccc4[nH]c3=O)cn2)COC1 [Example 99, 3-(5-((2-oxo-1,2-dihydroquinolin-3-yl)methyl)pyridin-2-yl)oxetane-3-carbonitrile] | 0.0059
CC(=O)Nc1ccc(Cc2cc3ccccc3[nH]c2=O)cn1 [Example 150, N-(5-((2-oxo-1,2-dihydroquinolin-3-yl)methyl)pyridin-2-yl)acetamide] | 0.0169
O=C1CCc2cc(Cc3cc4cc(F)ccc4[nH]c3=O)ccc2N1 [Example 123, 6-fluoro-3-((2-oxo-1,2,3,4-tetrahydroquinolin-6-yl)methyl)quinolin-2(1H)-one] | 0.0037
O=c1[nH]c2ccccc2cc1Cc1nnc(Cc2ccc(Br)cc2)o1 [Example 23, 3-((5-(4-bromobenzyl)-1,3,4-oxadiazol-2-yl)methyl)quinolin-2(1H)-one] | 0.126
O=C1CCc2ccc(Cc3cc4ccccc4[nH]c3=O)cc21 [Example 75, 3-((3-oxo-2,3-dihydro-1H-inden-5-yl)methyl)quinolin-2(1H)-one] | 0.0009
O=c1[nH]c2ccncc2cc1Cc1cccc(OC(F)(F)F)c1 [Example 117, 3-(3-(trifluoromethoxy)benzyl)-1,6-naphthyridin-2(1H)-one] | 0.0021
O=c1[nH]c2ccccc2cc1Cc1nnc(-c2ccc(C(F)(F)F)cc2)o1 [Example 7, 3-((5-(4-(trifluoromethyl)phenyl)-1,3,4-oxadiazol-2-yl)methyl)quinolin-2(1H)-one] | 0.0822
O=C1OC(CO)CN1c1ccc(Cc2cc3ccccc3[nH]c2=O)cn1 (racemic) [Example 49, rac-5-(hydroxymethyl)-3-(5-((2-oxo-1,2-dihydroquinolin-3-yl)methyl)pyridin-2-yl)oxazolidin-2-one] | 0.0156
CC(O)C(C#N)c1ccc(Cc2cc3ccccc3[nH]c2=O)cc1 (single isomer, unassigned) [Example 102B, 3-hydroxy-2-(4-((2-oxo-1,2-dihydroquinolin-3-yl)methyl)phenyl)butanenitrile] | 0.0078
O=c1[nH]c2ccccc2cc1Cc1ccc(C2CNC2)cc1 [Example 63, 3-(4-(azetidin-3-yl)benzyl)quinolin-2(1H)-one] | 0.0097
CC1(O)CC(c2ccc(Cc3cc4cnccc4[nH]c3=O)cc2)C1 (stereo not drawn) [compound 162, 3-(4-(3-hydroxy-3-methylcyclobutyl)benzyl)-1,6-naphthyridin-2(1H)-one] | 0.0068
CS(=N)(=O)Cc1ccc(Cc2cc3ccccc3[nH]c2=O)cc1 (single isomer, unassigned) [Example 187, 3-(4-(((S or R)-methylsulfonimidoyl)methyl)benzyl)quinolin-2(1H)-one] | 0.0286
